# Measurements from patent publication US20140271727A1, “METHOD OF USING AN ANTIDEPRESSANT FOR INCREASING IMMUNITY OF A SUBJECT AND TREATING CANCER” (NATIONAL YANG-MING UNIVERSITY, priority 2013, published 2014).
# What was measured:
# TNF-α = TNF-α in tumor by ex vivo Western blotting; parameters: species or system mouse; details: Always, Concurrent and After; day 42 post tumor inoculation; decreased to % of Never
# Method: As to the quantification of TNF-α, the whole blood withdrawn from the pouch of each mouse once a week for up to 6 weeks was centrifuged at 600×g for 20 min, and serum was collected. The serum TNF-α level was evaluated with an ELISA kit (eBioscience, USA). The level of TNF-α in the tumor of mice on day 42 post tumor inoculation was determined using ex vivo Western Blotting assay. Briefly, 6 weeks after tumor inoculation, the mice were sacrificed and the tumors were quickly removed and minced, then added with lysis buffer containing 1% protease inhibitor cocktail (T-PER tissue protein extraction reagent, Thermo Scientific, USA). Equal amounts of proteins (40 μg) were subjected to SDS-PAGE and transferred to PVDF membranes (Millipore, Bedford, Mass.). Non-specific binding was blocked by incubation with 5% non-fat milk. Membrane was incubated with antibodies against TNF-α (Abbiotec, USA) and β-actin (Millipore, USA) overnight at 4° C. The goat-anti rabbit IgG (Millipore) and goat-anti mouse IgG conjugated with horseradish peroxidase (Millipore) were used as the secondary antibodies. The band signal from the antigen-antibody binding was illustrated with enhanced chemoluminescence system (ECL, Millipore). Image J software (National Institutes of Health, USA) was used for the quantitative analysis.
# BALB/c mice = assay: Spontaneous motor activity assay; assay type: in vivo, mouse; details: continuous mirtazapine 10 mg/kg/d (drug and always); day 22 after tumor inoculation
# Method: Second, all animal study protocols were approved by the Institutional Animal Care and Use Committee (IACAU) of National Yang Ming University. Mirtazapine (0.25 mg) was dissolved in 0.05 ml of 0.9% NaCl plus 0.5% absolute ethanol for each mouse (i.e. 10 mg/kg.) Male BALB/c mice (initial weights 25±2 g, and purchased from the National Laboratory Animal Center, Taipei, Taiwan) were housed in the cages, five mice per cage, under a 12:12 h reverse light/dark cycle with lights off at 6 pm Animals were handled and weighed daily for a week to reduce any non-specific stress responses. […] “Wild-type” means the mice are monitored without tumor inoculation and mirtazapine treatment, drug means the mice are monitored with continuous mirtazapine treatment but without tumor inoculation, never means the mice are monitored with tumor inoculation and daily 0.05 ml of 0.9% NaCl plus 0.5% absolute ethanol treatment but without mirtazapine treatment, always means the mice are monitored with mirtazapine treatment initiated 2 weeks before the tumor inoculation, and concurrent means the mice are monitored with tumor inoculation and mirtazapine treatment on the same day, and after means the mice are monitored with mirtazapine treatment initiated 2 weeks post the tumor inoculation. […]
# CT26/luc cells = assay: MTT cell viability assay; assay type: cell-based, mouse; details: 0-80 μM for 24, 48 and 72 hrs
# Method: The details in preparing the materials and processing relative analyses will be illustrated as follows. First, CT-26 murine colon carcinoma cells (obtained from Taiwan Liposome Company, Taipei, Taiwan) were transfected with the luciferase gene (hereafter called “CT26/luc”). The CT26/luc tumor cells were cultured in RPMI 1640 medium (Invitrogen) supplemented with 10% fetal bovine serum (Hyclone), 100 units/ml of penicillin, and […] streptomycin (Gibco-BRL) at 37° C. in a 5% CO2 atmosphere.
# Before starting the following investigation. The cell viability is analyzed. 3-(4,5-Dimethylthiazol-2-yl)-2,5-diphenyltetrazolium bromide (MTT, Sigma, USA) was dissolved in phosphate-buffered saline (145 mM NaCl, 1.4 mM KH2PO4, 4.3 mM Na2HPO4, and 2.7 mM KCl, pH 7.2). The CT26/luc cells were seeded in 96-well plates overnight, and then treated with various concentrations, such as 0, 5, 10, 20, 40, and 80 μM, of mirtazapine for 24, 48, and 72 hrs. And then, cell viability was determined with MTT assay. […] After 4 hours incubation at 37° C., 100 μl DMSO was added to dissolve the MTT formazan, and the absorbance was determined with an ELISA reader (Power Wave X340, Bio-Tek Instrument Inc., USA) using a wavelength of 570 nm for the excitation. […] The cell cycle analysis was assayed using a FACScan (BD Sciences) and analyzed by CellQuest software (BD Sciences).
# IFN-γ = IFN-γ level in tumor by ELISA; assay type: in vivo, mouse; details: tumor lysate 6 weeks after tumor inoculation, 2 mg tumor protein
# Method: And then, the level of IFN-γ in the tumor was determined using an ELISA kit (R&D Systems, Taiwan). Briefly, 6 weeks after tumor inoculation, the mice were sacrificed and the tumors were quickly removed and minced, then added with lysis buffer containing 1% protease inhibitor cocktail (T-PER tissue protein extraction reagent, Thermo Scientific, USA). After sonication, the cell mixture was centrifuged with 15000 rpm (Kubota centrifuge 1700, Japan) at 4° C. for 10 min The supernatant was collected for the protein quantification using bovine serum albumin as the standard. Two mg of the tumor proteins was used for the quantification of IFN-γ.
structure (smiles),measurement,setting,value
CN1CCN2c3ncccc3Cc3ccccc3C2C1 (stereo not drawn) [mirtazapine],TNF-α level in tumors relative to Never,TNF-α,40%
same,spontaneous motor activity,BALB/c mice,no effect
same,toxicity to CT26 colon cells,CT26/luc cells,nontoxic
same,IFN-γ in tumor,IFN-γ; group Always,85.35 ± 4.5 pg/mL
same,IFN-γ in tumor,IFN-γ; group Concurrent,39.42 ± 7.42 pg/mL
same,IFN-γ in tumor,IFN-γ; group after,19.60 ± 1.13 pg/mL
